Experimental data as given in patent publication US12410399B2, “Compositions and methods for treating retinal diseases” (The Regents of the University of California, priority 2011, dated 2025).

Tests used:
hRPC = assay: steroid toxicity test on hRPCs (CCK-8 cytotoxicity); type: cell-based, human
Description: The cells were also subjected to a steroid toxicity test, since steroids are often used in patients at the time of transplantation.
Cell Counting Kit-8 (CCK-8; Dojindo Molecular Technologies Inc., Gaithersburg, MD) was used to determine cytotoxicity of RPCs. The kit uses WST-8, which, upon bioreduction in the presence of the electron carrier 1-methoxy PMS, produces a water-soluble colored formazan. Ninety-six well plates containing 90 μl of cell suspension per well were inoculated with 10 μl of CCK-8 pre-packaged solution. The plates were incubator for 2 hours and the OD450 of the supernatant was measured. Each experiment was performed in quadruplicate on at least three separate experiments.

hRPCs = assay: hRPC culture medium and supplement comparison (yield, proliferation); type: cell-based, human; conditions: supplement added to culture medium every two days
Description: Various serum- and xeno-free cell culture media were tested to determine the optimum condition for propagating RPCs, including DMEM/FF12 (standard, Advanced and KnockOut; Invitrogen), Neurobasal (Invitrogen), Ultraculture (Lonza), and ReNcell (Chemicon). […] “SM” as provided herein refers to standard growth medium based on DMEM/FF12. “UL” is referred to herein as growth medium using Ultraculture as the base medium. Serum-free media was used in the absence of antibiotics or with antibiotics for first two weeks, followed by antibiotic-free media for about 6 weeks. No antifungal agents were used. […] For base medium, standard DMEM/F12, a media supplemented with N2 Supplement, growth factors, glutamine or GLUTAMAX™ (GlutaMax™), was compared with “Advanced DMEM/FF12”, supplemented in the same way.
The effects of cell culture supplementation were also explored. To that end, the N2 supplement was also compared with the B27 xeno-free supplement. […] The effects of additional vitamin C were also tested. A vitamin C supplement was added to the culture medium every two days. […] Finally, supplementation with albumin was tested.
The osmolarity of the cell culture medium was also examined by using media of differing osmolarity (osm), in combination with different commercially available supplements.

| SMILES | effect on cell proliferation (hRPC; clinical doses) | effect on donor cell viability (hRPC; high doses (about >10 times the expected clinical dose)) | improvement of hRPC yield (hRPCs) |
| --- | --- | --- | --- |
| CC1(C)O[C@@H]2C[C@H]3[C@@H]4CCC5=CC(=O)C=C[C@]5(C)[C@@]4(F)[C@@H](O)C[C@]3(C)[C@]2(C(=O)CO)O1 [triamcinolone acetonide] | did not appear to affect cell proliferation | may decrease donor cell viability |  |
| O=C1O[C@H]([C@@H](O)CO)C(O)=C1O [vitamin C] |  |  | approximately 30% |
